Measurements reported in patent US4482568A, “Inhibition of alcohol metabolism by tetramethylene sulfoxides” (University of Iowa Research Foundation, priority 1983, dated 1984).
Where two headings read alike, the source gives them in different places.

Tests used:
[1] = test system: ethanol induced loss of righting reflex; settings: mice; Sharkawi 1979; cited from earlier work
[2] = target: T1, horse liver alcohol dehydrogenase (Equus caballus, UniProt P00327); assay: Inhibition of horse liver alcohol dehydrogenase in vitro (Kii against varied ethanol); format: biochemical
T1 construct: Crystallized horse liver alcohol dehydrogenase; from tissue; host or cells: horse liver
Experimental: (§1) ^a The Kii values (intercept) inhibition constants in micromolar
(§2) units as determined against varied concentrations of ethanol as substrate
(§3) Purified or partially purified enzyme was tested under approximately
(§4) physiological conditions, pH 7.3 and 37° C., except that the
(§5) crystallized horse enzyme was tested at pH 7 and 25° C.
(§6) Crystallized horse liver alcohol dehydrogenase was freed from endogenous ethanol by filtration though a column of Sephadex G-50. Inhibition studies were carried out with varied concentrations of ethanol (0.4-2 mM) at 1 mM NAD+ in 46 mM sodium phosphate buffer, pH 7, at 25° C. In each experiment, at least three different concentrations of inhibitor were tested and 32 initial velocities were determined (as in FIGS. 2A and 3A of the Journal article). Data for noncompetitive inhibition were fitted to the equation v=VS/[Km (1+[…])+S(1+I/Kii)], whereas the equation for uncompetitive inhibition has no Kis term, and competitive inhibition has no Kii term. The equation giving the lowest standard errors and residual variance was concluded to give the best fit. Rat liver alcohol dehydrogenase was partially purified, and inhibition studies were performed as with the horse liver enzyme, except that the buffer was 83 mM potassium phosphate, pH 7.3, and 40 mM KCl, total ionic strength=0.25, and the temperature was 37.8° C. The concentration of NAD was 0.5 mM. These conditions are thought to resemble those found in vivo. The concentrations of ethanol were 0.4, 0.6, 1, and 2 mM, and the inhibitors were varied between 0 and 0.6 mM.

ethanol metabolism [3] = assay: Blood alcohol concentration in rats after ethanol and inhibitor (FIG. 1); format: in vivo; settings: 19.6 mmol/kg ethanol, 1 mmol/kg inhibitor
Experimental: In order to compare dimethyl sulfoxide and its potential as an inhibitor with the compounds of this invention, rats were given dosages of 19.6 millimoles per kilogram of body weight of alcohol and/or injections of one millimole per kilogram of body weight of the inhibitors, either dimethyl sulfoxide, tetramethylene sulfoxide, 3-methyltetramethylene sulfoxide, or 3-butyltetramethylene sulfoxide. After injection, the alcohol concentration in the blood was measured. The drawing reports the alcohol concentration. The line designated by the numeral 12 represents ethanol without any inhibitor. The line designated by 11 represents ethanol with dimethyl sulfoxide. The line represented by the numeral 13 represents ethanol with tetramethylene sulfoxide.

[4] = test system: alcohol dehydrogenases in the liver; settings: background, cited from earlier work
[5] = test system: isolated liver alcohol dehydrogenases; assay: Inhibition of ethanol oxidation by isolated liver alcohol dehydrogenases (general statements); format: biochemical
Experimental: as §6

[6] = target: Liver Alcohol Dehydrogenase (Monkey); assay: Inhibition of monkey liver alcohol dehydrogenase in vitro (Kii against varied ethanol); format: biochemical; settings: purified or partially purified enzyme, pH 7.3, 37° C., ethanol varied as substrate
Experimental: as §1, §2, §3, §4, §5

ethanol metabolism [7] = assay: Ethanol (elimination rate) metabolism in rats; format: in vivo, male Sprague-Dawley rats; settings: for Ethanol (Elimination Rate) Metabolism In Rats, % Inhibition: 19.6 mmoles of ethanol/kg i.p. and 1 mmole/kg inhibitor, maximum obtainable about 85%
Experimental: ^b The Kii (intercept inhibition constant, micromoles/kg) was
determined with varied concentrations of inhibitor and ethanol by
determination of blood alohol concentrations. For a survey of inhibitory
potency, rats were given 19.6 mmoles of ethanol/kg body wt., i.p., and 1.
mmole of the inhibitor, and the percentage inhibition of ethanol
elimination was calculated with reference to an animal given no inhibitor
The maximum "inhibition" that can be obtained is about 85%, since some
ethanol is eliminated by excretion, rather than by oxidation by alcohol
^c The value was estimated from results from rats given 19.6 mmoles o
ethanol/kg and 0.1, 0.4, and 1.0 mmoles/kg of the inhibitor.
The precise experimental details for assembling the data shown in the above table are reported in our Journal of Medicinal Chemistry article, 1983, Vol. 26, No. 6, at page 921. The entire article is incorporated herein by reference. In particular, for the rat studies, inhibition of ethanol metabolism by the active compounds of this invention were studied in vitro in liver alcohol dehydrogenase from horses, monkeys and rats. The in vivo study of ethanol metabolism in rats, and in particular its inhibition was studied with male Sprague-Dawley rats, which were given intraperitoneal injections of active compounds (0.1 molar) in saline at doses of 0.0, 0.25 and 0.5 or 1.0 mmole/kg of body weight. Ten minutes later, ethanol was injected intraperitoneally at a dose of 19.6 mmoles/kg of body weight. Blood samples were taken at intervals, timed from the ethanol injection, and analyzed by gas chromatography.

[8] = target: T2, Rat liver alcohol dehydrogenase (Rattus norvegicus, UniProt P06757); assay: Inhibition of rat liver alcohol dehydrogenase in vitro (Kii against varied ethanol); format: biochemical
T2 construct: Rat liver alcohol dehydrogenase was partially purified; from tissue; host or cells: rat liver
Experimental: as §1, §2, §3, §4, §5, §6

[9] = crystallized horse enzyme, pH 7, 25° C., ethanol varied as substrate, read-out: Liver Alcohol Dehydrogenase, In Vitro, Kii, Horse
[10] = partially purified enzyme, pH 7.3, 37° C., ethanol varied as substrate, read-out: Liver Alcohol Dehydrogenase, In Vitro, Kii, Rat

T2 sequence (P06757 2-376 limits assumed): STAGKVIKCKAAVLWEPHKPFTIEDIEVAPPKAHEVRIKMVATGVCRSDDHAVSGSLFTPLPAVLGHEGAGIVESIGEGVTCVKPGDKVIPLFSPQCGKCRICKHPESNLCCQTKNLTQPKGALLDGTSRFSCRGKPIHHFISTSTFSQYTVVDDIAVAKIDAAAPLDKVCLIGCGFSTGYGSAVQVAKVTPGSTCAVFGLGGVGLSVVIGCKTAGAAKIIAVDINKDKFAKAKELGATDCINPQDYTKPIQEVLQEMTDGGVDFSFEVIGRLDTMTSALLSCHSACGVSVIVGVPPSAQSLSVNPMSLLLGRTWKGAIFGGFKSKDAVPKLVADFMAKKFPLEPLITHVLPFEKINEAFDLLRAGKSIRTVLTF
T1 sequence (P00327 2-375 limits assumed): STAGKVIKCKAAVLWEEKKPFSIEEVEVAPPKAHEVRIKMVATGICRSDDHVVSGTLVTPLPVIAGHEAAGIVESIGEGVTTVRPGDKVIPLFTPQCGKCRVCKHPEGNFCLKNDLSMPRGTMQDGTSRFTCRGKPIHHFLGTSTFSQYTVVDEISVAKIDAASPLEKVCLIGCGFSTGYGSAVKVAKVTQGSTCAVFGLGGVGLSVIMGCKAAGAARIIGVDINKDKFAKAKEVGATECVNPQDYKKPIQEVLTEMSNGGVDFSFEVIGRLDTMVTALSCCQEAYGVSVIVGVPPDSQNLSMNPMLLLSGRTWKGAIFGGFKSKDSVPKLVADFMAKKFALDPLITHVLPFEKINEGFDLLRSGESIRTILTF

| Ki [6] | Ki [2, 9] | Ki [8, 10] | Structure (SMILES) | effectiveness as inhibitor of alcohol metabolism (blood alcohol concentration) (ethanol metabolism [3]) | Ethanol (Elimination Rate) Metabolism In Rats, % Inhibition (ethanol metabolism [7]) | further results |
| --- | --- | --- | --- | --- | --- | --- |
|  |  |  | C[S+](C)[O-] [dimethyl sulfoxide, reference compound] | not effective as an inhibitor |  | effect on ethanol induced loss of righting reflex [1]: significantly "prolong the ethanol induced loss of righting reflex in mice"; inhibition constant with horse liver alcohol dehydrogenase ([2]; stated for comparison): four to five; inhibitory effect on alcohol metabolism ([4]; Sharkawi, Toxicology Letters 1979): some slight inhibitory effect |
| 2.2 µM | 0.63 µM | 1.5 µM | CCCCC1CC[S+]([O-])C1 (stereo not shown) [3-Butyltetramethylene sulfoxide, 3-butylthiolane-1-oxide] | far superior to even tetramethylene sulfoxide | 76% |  |
| 450 µM | 7.5 µM | 18 µM | CC1CC[S+]([O-])C1 (stereo not shown) [3-Methyltetramethylene sulfoxide, 3-Methylthiolane-1-oxide] | far superior to even tetramethylene sulfoxide | 72% | Ethanol (Elimination Rate) Metabolism In Rats, Kii (estimated) (ethanol metabolism [7]; estimated from rats given 19.6 mmoles of ethanol/kg and 0.1, 0.4, and 1.0 mmoles/kg of inhibitor): 150 µmol/kg |
|  |  |  | CCO [ethanol] |  |  | type of inhibition [4]: competitive inhibitor; effectiveness as inhibitor ([4]; ethanol as treatment for toxic alcohol ingestion): not a very effective inhibitor |

| Structure (SMILES) | Ki [6] | Ki [2, 9] | Ki [8, 10] | effectiveness as inhibitor of alcohol metabolism (blood alcohol concentration) (ethanol metabolism [3]) | Ethanol (Elimination Rate) Metabolism In Rats, % Inhibition (ethanol metabolism [7]) | further results |
| --- | --- | --- | --- | --- | --- | --- |
| [O-][S+]1CCCC1 [Tetramethylene Sulfoxide, tetramethylene sulfoxide] | 1700 µM |  |  | far more effective | 63% | inhibition of ethanol oxidation by isolated liver alcohol dehydrogenases (in words) [5]: exceptionally potent inhibitors; Ki [2]: 19 µM; inhibition of ethanol metabolism in animals (in words) (ethanol metabolism [7]; animals/rats): effectively inhibit ethanol metabolism in animals; Ethanol (Elimination Rate) Metabolism In Rats, Kii (ethanol metabolism [7]; intercept inhibition constant, varied concentrations of inhibitor and ethanol, blood alcohol concentrations, i.p.): 340 µmol/kg; Ki [8]: 200 µM |
